{"source": "patent US11248022B2", "about": "“Glypican-3 peptide reagents and methods” (THE REGENTS OF THE UNIVERSITY OF MICHIGAN, priority 2017, dated 2022)", "key": {"Hep3B human HCC cells": {"test_system": "Hep3B human HCC cells", "assay": "Confocal microscopy of peptide binding to Hep3B cells", "assay_type": "cell-based", "experimental": "FIGS. 6-2A-Q show validation of specific peptide binding to cells in vitro. […] The Hep3B versus SK-Hep1 difference was also larger for antibody than QLE (P=2.3×10^−8, 6.0-fold larger). Intensity was measured with 6 replicates per condition and fitted to an ANOVA model with terms for 9 means to log-transformed data. […] We further validated specific peptide binding to GPC3 using siRNA knockdown. […] Q) Quantified fluorescence intensities. The siCL vs siGPC3 difference was 7.4 times bigger for ALL than the same difference for QLE (P=7.8×10^−5), and the difference for antibody was 8.9 times bigger than for QLE (P=2.5×10^−5), by ANOVA on log-transformed data. Results are an average of 6 images collected independently.\nOn confocal microscopy, it was shown that ALL*-Cy5.5 binds to the surface (arrows) of cells with different levels of GPC3 expression. […] GPC3 is highly overexpressed in Hep3B cell cytosol and membrane while moderately expressed in HepG2 cells. No GPC3 expression is observed in SK-Hep1 cells. Tubulin serves as loading control for either cytosol or membrane fractions loaded."}, "Hep3B cells": {"test_system": "Hep3B cells", "assay": "Apparent dissociation constant on Hep3B cells by flow cytometry", "assay_type": "binding, human", "experimental": "The apparent dissociation constant (kd) was measured for the optimized GPC3 peptide to Hep3B cells to provide an assessment of peptide binding affinity. The ALL*-Cy5.5 peptide reagent was serially diluted in PBS at concentrations ranging from 0 to 200 nM in 25 nM increments and incubated with Hep3B cells. The mean fluorescence intensities was measured on flow cytometry. The equilibrium dissociation constant kd=1/ka was calculated by performing a least squares fit of the data to the non-linear equation I=(I0+Imaxka[X])/([…]). I0and Imax are the initial and maximum fluorescence intensities, corresponding to no peptide and at saturation, respectively, and [X] represents the concentration of the bound peptide."}, "[1]": {"assay": "Biodistribution of peptide in excised organs", "assay_type": "in vivo, mice", "conditions": "excised organs 2 hours post injection, n=5", "experimental": "To assess the biodistribution of peptide probe, mice (n=5) were sacrificed 2 hours after injection of 250 μL of 300 μM ALL*-Cy5.5 using a fluorescence imaging system (IVIS Spectrum, PerkinElmer, Mass.). The organs were harvested and imaged ex vivo. Mice injected with scrambled control peptide, QLE*-Cy5.5 and free dye Cy5.5 were imaged with the same filters and exposure time. Absence of auto fluorescence was confirmed in PBS injected mice. The amount of fluorescent signal in each organ was quantified as a percentage of total fluorescence signal (p/s) in each mouse. Ex vivo fluorescence images taken of internal organs as well as resected tumor 2 hours post injection of probes are shown in FIG. 10A. Free Cy5.5 dye and Cy5.5 labeled targeting and scrambled peptides accumulated most in the liver and kidneys of mice, followed by GI tract and spleen."}, "[2]": {"assay": "Histology of vital organs post-peptide administration (acute toxicity)", "assay_type": "in vivo, mice", "conditions": "2 hours post-injection; brain, heart, lung, liver, spleen, kidney, stomach, intestine, cecum, colon", "experimental": "Vital organs were harvested post peptide administration in mice to evaluate acute toxicity of peptide probe with histology observation. Mice bearing human HCC xenograft tumors were sacrificed 2 hours post-injection of ALL*-Cy5.5."}, "human HCC": {"test_system": "human HCC", "assay": "Immunofluorescence on human liver biopsies ex vivo", "from_the_text": "Specific peptide binding to human HCC was confirmed on patient biopsies (n=41) ex vivo from University of Michigan Hospital. […] Antibody staining of the same tissue confirmed minimal GPC3 expression, FIG. 15B. Binding by ALL*-Cy5.5 peptide and AF488-labeled anti-GPC3 antibody co-localized on normal liver specimen with Pearson's correlation coefficient of p=0.62, FIG. 15C. Co-stained regions were also imaged at 40×, FIG. 15D and 100× (dashed box in Panel D) magnifications, FIG. 15E.\nQuantitative comparison of ALL*-Cy5.5 binding to human HCC with normal liver, adenoma and cirrhosis tissue was summarized in FIG. 15U."}, "human HBV-derived HCC": {"test_system": "human HBV-derived HCC", "assay": "Immunofluorescence on human HBV-derived HCC specimens", "conditions": "5 μM, 15 min", "experimental": "Formalin-fixed specimens of HBV-derived HCC from the bio-bank at the Peking University People's Hospital were used. The specimens were deparaffinized, and antigen retrieval was performed using standard methods. Specimens of HCC and non-tumorous liver were cut in 10 μm sections, and incubated with the ALL*-Cy5.5 peptide reagent at a concentration of 5 μM in 1× PBS for 15 min at RT. The sections were washed 3× with PBS and incubated overnight at 4° C. with a 1:1000 dilution of primary anti-GPC3 antibody (Santa Cruz Biotechnology, 1G12, sc-65443) overnight at 4° C. The sections were washed with PBS 3× and incubated with 1:500 dilution of Alexa Fluor 488-labeled secondary goat […] antibody (Invitrogen) for 1 hour at RT. The sections were fixed with 4% PFA for 10 min. The sections were then mounted with ProLong Gold reagent containing DAPI (Invitrogen). Confocal fluorescence images were collected with DAPI, FITC and Cy5.5 filters. A Pearson's correlation coefficient will be measured to assess co-localization of peptide and antibody binding."}, "[3]": {"test_system": "GPC3 positive tumor (from Hep3B cells)", "conditions": "mouse, in vivo, iv", "method": "(§1) Mice bearing HCC xenograft tumor (arrowheads) were i.v. injected with 250 μL of 300 μM near NIR GPC3 targeting peptide ALL*-Cy5.5, scrambled control peptide QLE*-Cy5.5 and unlabeled Cy5.5 free dye alone. ALL*-Cy5.5 was also injected in mice bearing GPC3 negative tumor (from SK Hep-1 cells, arrows) as control of EPR effect. Pre-injection imaging confirmed no autofluorescence was present."}, "[4]": {"test_system": "GPC3 positive tumor (from Hep3B cells)", "assay": "In vivo whole body fluorescent imaging of HCC xenograft", "conditions": "2 hours post injection", "method": "as §1"}, "[5]": {"conditions": "41 patients, log-transformed data"}}, "note": "Where “and” joins values, the source holds several entries; their conditions need not be identical. Identical values can stand only once. Ends that are not written are not given here."}
{"sequence": "ALLANHEELFQT (SEQ ID NO: 1) peptide labeled with Cy5.5 via a GGGSK linker on the C-terminus (ALLANHEELFQTGGGSK-{Cy5.5}) [ALL*-Cy5.5]", "values": [{"measurement": "intensity difference Hep3B vs SK-Hep1 relative to the same difference for QLE*", "setting": "Hep3B human HCC cells; 6 replicates, log-transformed data", "value": 8.2, "unit": "fold"}, {"measurement": "fluorescence intensity from binding to cell surface", "setting": "Hep3B human HCC cells; Hep3B cells, confocal microscopy", "value": "strong fluorescence intensity"}, {"measurement": "Kd", "setting": "Hep3B cells", "value": "71 nM and 71.3 nM"}, {"measurement": "signal in the tumor vs scrambled probe, GPC3 negative tumor, free dye", "setting": "[1]", "value": "significantly higher"}, {"measurement": "acute peptide toxicity on histology of vital organs", "setting": "[2]", "value": "No signs of acute peptide toxicity"}, {"measurement": "signal in HCC relative to adenoma", "setting": "human HCC; [5]", "value": 2.48, "unit": "fold"}, {"measurement": "signal in HCC relative to cirrhosis", "setting": "human HCC; [5]", "value": 2.05, "unit": "fold"}, {"measurement": "signal in HCC relative to normal", "setting": "human HCC; [5]", "value": 3.43, "unit": "fold"}, {"measurement": "immunofluorescence staining", "setting": "human HCC; HCC tissue", "value": "Strong intense staining"}, {"measurement": "immunofluorescence staining", "setting": "human HCC; adenoma tissue", "value": "Minimal staining"}, {"measurement": "immunofluorescence staining", "setting": "human HCC; cirrhotic liver tissue", "value": "moderate diffuse staining"}, {"measurement": "immunofluorescence staining", "setting": "human HCC; human normal liver tissue", "value": "negative staining"}, {"measurement": "binding to section of HBV-derived HCC on immunofluorescence", "setting": "human HBV-derived HCC", "value": "strong binding"}, {"measurement": "time of peak uptake/signal post injection", "setting": "[3]", "value": 2, "unit": "h"}, {"measurement": "mean tumor signal vs scrambled peptide, GPC3 negative tumor and free dye", "setting": "[4]", "value": "significantly higher"}, {"measurement": "target-to-background (T/B) ratio", "setting": "[4]; mean±SD", "value": "3.91±0.58"}]}
